# In ChEMBL document CHEMBL3885881, “DrugMatrix”:
# Species on record: Rattus norvegicus
# Experiment: DrugMatrix - Regimen: Daily Repeat
# Format: toxicity, organism-based, Sprague-Dawley
# Design: regimen Daily Repeat, gender Male, age 6-8 weeks
# Conditions: in vivo, po, 40 mg/kg, route oral GAVAGE, dose level Low, […]; for ABSOLUTE BASOPHIL / ABSOLUTE EOSINOPHIL / ABSOLUTE LYMPHOCYTE / ABSOLUTE MONOCYTE / BASOPHIL / EOSINOPHIL / ERYTHROCYTE COUNT / HEMATOCRIT / HEMOGLOBIN / LEUKOCYTE COUNT / LYMPHOCYTE / MEAN CORPUSCULAR HEMOGLOBIN / MEAN CORPUSCULAR HEMOGLOBIN CONCENTRATION / MEAN CORPUSCULAR VOLUME / MONOCYTE / NEUTROPHIL / PLATELET COUNT: tissue Blood
# [1] = 72 h, tissue Plasma, time 3 day
# [2] = 120 h, tissue Plasma, time 5 day
structure (smiles),measurement,setting,value
C=CCN [ALLYLAMINE],TOTAL BILIRUBIN,[1],0.37 mg/dL
same,TOTAL PROTEIN,[1],6.2 G/DL
same,URIC ACID,[1],0.87 mg/dL
same,ABSOLUTE BASOPHIL,"120 h, time 5 day",43.3 cells/µL
same,ABSOLUTE EOSINOPHIL,"120 h, time 5 day",90 cells/µL
same,ABSOLUTE LYMPHOCYTE,"120 h, time 5 day",7670 cells/µL
same,ABSOLUTE MONOCYTE,"120 h, time 5 day",220 cells/µL
same,BASOPHIL,"120 h, time 5 day",0.4%
same,EOSINOPHIL,"120 h, time 5 day",0.87%
same,ERYTHROCYTE COUNT,"120 h, time 5 day",6.74 x10E6/uL
same,HEMATOCRIT,"120 h, time 5 day",45.3%
same,HEMOGLOBIN,"120 h, time 5 day",14.1 G/DL
same,LEUKOCYTE COUNT,"120 h, time 5 day",9.63 x10E3/uL
same,LYMPHOCYTE,"120 h, time 5 day",79.33%
same,MEAN CORPUSCULAR HEMOGLOBIN,"120 h, time 5 day",20.87 pg
same,MEAN CORPUSCULAR HEMOGLOBIN CONCENTRATION,"120 h, time 5 day",31 G/DL
same,MEAN CORPUSCULAR VOLUME,"120 h, time 5 day",67.23 fL
same,MONOCYTE,"120 h, time 5 day",2.27%
same,NEUTROPHIL,"120 h, time 5 day",16.57%
same,PLATELET COUNT,"120 h, time 5 day",1351.33 x10E3/uL
same,ALANINE AMINOTRANSFERASE,[2],42.33 u/L
same,ALBUMIN,[2],4.03 G/DL
same,ALKALINE PHOSPHATASE,[2],470.67 u/L
same,ASPARTATE AMINOTRANSFERASE,[2],72.67 u/L
same,BLOOD UREA NITROGEN,[2],16 mg/dL
same,CARBON DIOXIDE,[2],41 mmol/L
same,CHLORIDE,[2],105.33 MEQ/L
same,CHOLESTEROL,[2],72 mg/dL
same,CREATINE PHOSPHOKINASE,[2],350.33 u/L
same,CREATININE,[2],0.53 mg/dL
same,GLUCOSE,[2],155.33 mg/dL
same,LIPASE,[2],249.67 u/L
same,PHOSPHORUS,[2],9.53 mg/dL
same,POTASSIUM,[2],6.27 MEQ/L
same,SODIUM,[2],147.33 MEQ/L
same,TOTAL BILIRUBIN,[2],0.47 mg/dL
same,TOTAL PROTEIN,[2],6.63 G/DL
same,URIC ACID,[2],0.9 mg/dL
same,ABSOLUTE BASOPHIL,time 14 day,50 cells/µL
same,ABSOLUTE EOSINOPHIL,time 14 day,42 cells/µL
same,ABSOLUTE LYMPHOCYTE,time 14 day,10000 cells/µL
same,ABSOLUTE MONOCYTE,time 14 day,250 cells/µL
same,BASOPHIL,time 14 day,0.38%
same,EOSINOPHIL,time 14 day,0.34%
same,ERYTHROCYTE COUNT,time 14 day,7.47 x10E6/uL
same,HEMATOCRIT,time 14 day,46.98%
same,HEMOGLOBIN,time 14 day,15.52 G/DL
same,LEUKOCYTE COUNT,time 14 day,12.8 x10E3/uL
same,LYMPHOCYTE,time 14 day,78.9%
same,MEAN CORPUSCULAR HEMOGLOBIN,time 14 day,20.78 pg
same,MEAN CORPUSCULAR HEMOGLOBIN CONCENTRATION,time 14 day,33.02 G/DL
same,MEAN CORPUSCULAR VOLUME,time 14 day,62.96 fL
same,MONOCYTE,time 14 day,1.9%
same,NEUTROPHIL,time 14 day,17.96%
same,PLATELET COUNT,time 14 day,1148.8 x10E3/uL
same,ALANINE AMINOTRANSFERASE,"tissue Plasma, time 14 day",29 u/L
same,ALBUMIN,"tissue Plasma, time 14 day",4.18 G/DL
same,ALKALINE PHOSPHATASE,"tissue Plasma, time 14 day",389.8 u/L
same,ASPARTATE AMINOTRANSFERASE,"tissue Plasma, time 14 day",69.2 u/L
same,BLOOD UREA NITROGEN,"tissue Plasma, time 14 day",13.8 mg/dL
same,CARBON DIOXIDE,"tissue Plasma, time 14 day",44.6 mmol/L
same,CHLORIDE,"tissue Plasma, time 14 day",102.4 MEQ/L
same,CHOLESTEROL,"tissue Plasma, time 14 day",74.2 mg/dL
same,CREATINE PHOSPHOKINASE,"tissue Plasma, time 14 day",240 u/L
same,CREATININE,"tissue Plasma, time 14 day",0.76 mg/dL
same,GLUCOSE,"tissue Plasma, time 14 day",131.8 mg/dL
same,LACTATE DEHYDROGENASE,"tissue Plasma, time 14 day",199 u/L
same,LIPASE,"tissue Plasma, time 14 day",11.2 u/L
same,PHOSPHORUS,"tissue Plasma, time 14 day",9.98 mg/dL
